Reference: PubChem BioAssay AID2060507 (Molecular Pharmacology Branch, DTP, NCI, 2025)
Values joined by “and” are separate entries in the source; they are usually repeats but may differ in a detail not shown here. Identical values can stand only once.

System: 519858-162-T-J1-PDC complex spheroid viability
Assay: Anticancer human tumor 519858-162-T-J1-PDC patient-derived colon adenocarcinoma cell line growth inhibition [GQUAD]
Details: for viability, T/C: stronger effect = lower value
Text: DNA G-quadruplex Stabilizer Agents in Combinations in Complex Spheroids
A high-throughput screen of multi-cell type tumor spheroids was designed to identify active combinations of DNA G-quadruplex stabilizer agents and targeted small molecules. Complex spheroids include a stromal component modeled by human endothelial cells (HUVEC) and fibroblasts modeled by human mesenchymal stem cells (MSCs). The concentration ranges selected for each drug and investigational agent were based upon clinically achievable concentrations if the clinical Cmax of the agent was known.
Compounds. The drugs and investigational agents: pidnarulex (CX-5461; NSC782164), APTO-253 (NSC789042), BRACO-19 (NSC847499), peposertib (NSC802822), ceralasertib (NSC780249), elimusertib (NSC800525), camonsertib (NSC841442), AZD-1390 (NSC803789), olaparib (NSC753686), talazoparib (NSC767125), ART-558 (NSC835418), sotorasib (NSC818433), MRTX-1133 (NSC836407), SN-38 (NSC673596), topotecan (NSC609699), etoposide (NSC141540), doxorubicin (NSC123127), gemcitabine (NSC613327), 5-fluorouracil (NSC19893), paclitaxel (NSC125973), vemurafenib (NSC761431), panobinostat (NSC761190), R-306465 (JNJ-16241199; NSC773264), adavosertib (NSC754352), TP-3654 (NSC805149), carboplatin (NSC241240), KSQ-4279 (NSC840948), and staurosporine (NSC755774) were obtained from the National Cancer Institute (NCI) Developmental Therapeutics Program Chemical Repository (34). The FDA-approved anticancer drug set is available from the NCI Developmental Therapeutics Program. […] The stock solutions were prepared in dimethyl sulfoxide (DMSO, Sigma-Aldrich, St. Louis, MO, cat. D2650) at 800-fold the tested concentration and stored at -70 degrees C prior to their use. All drugs and investigational agents were tested over a range starting from a high concentration at or near the clinical Cmax and decreasing in half-log increments. If the clinical Cmax for an agent had not been determined, the highest concentration tested was 10 microM.
2.3 Cell Culture. All cells were maintained in an incubator at 37 degrees C and 5% CO2 with 95% humidity. The PDC lines were cultured according to standard operating procedures established by the NCI PDMR. All PDCs were thawed and cultured in Matrigel-coated flasks prepared with a working solution of 1X Ham's F-12 nutrient mix, without supplementation (Invitrogen, cat. 11765054), 100 U/mL penicillin-streptomycin (Invitrogen, cat. 15140122), and 2.5% Matrigel (Corning Inc., cat. 354248) for the first three passages. The 857933-349-R-J2-PDC line was cultured in 6C/Colon 1B media, which includes advanced DMEM/F-12 (Thermo Fisher Scientific, cat. 12634028), 10 mM HEPES (Thermo Fisher Scientific, cat. 15630080), 1X GlutaMAX supplement (Thermo Fisher Scientific, cat. 35050061), 0.1 mg/mL primocin (InvivoGen, cat. ant-pm-2), 10% defined fetal bovine serum, heat inactivated (HyClone Laboratories Inc., cat. SH30070.03HI), 50% L-WRN conditioned media (ATCC, cat. CRL-3276), 1.25 mM N-Acetyl-L-cysteine (Sigma-Aldrich, cat. A9165), 10 mM nicotinamide (Sigma-Aldrich, cat. N0636), 1X B-27 supplement (Thermo Fisher Scientific, cat. 17504044), 1X N-2 supplement (Thermo Fisher Scientific, cat. 17502048), 10 microM Y-27632 dihydrochloride (Tocris Bioscience, cat. 1254), and 50 ng/mL human EGF recombinant protein (Thermo Fisher Scientific, cat. PHG0311). The 485176-168-R4-J1-PDC line was cultured in Panc media, which includes all 6C/Colon 1B media components plus 100 ng/mL human FGF-10 (Thermo Fisher Scientific, cat. 100-26), 500 nM SB-431542 (Selleckchem, cat. S1067), and gastrin (Tocris, cat. 3006).
[…]
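Also: spheroids exposed to compounds for 7 days.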
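For viability, T/C in this document: 100% = DMSO vehicle control viability.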

Structure (SMILES)	viability, T/C (compound 0.0316 µM)	viability, T/C (compound 0.1 µM)	viability, T/C (compound 0.316 µM)	viability, T/C (compound 1 µM)	viability, T/C (compound 3.16 µM)	viability, T/C (compound 10 µM)	IC50 (curve of compound)	IC50 (compound alone, run of 02/20/2024)	IC50 (compound alone, run of 02/26/2024)
C#Cc1c(F)ccc2cc(O)cc(-c3ncc4c(N5CC6CCC(C5)N6)nc(OCC56CCCN5CC(F)C6)nc4c3F)c12 (stereo not given)	93.8% and 103% and 90.4%	101% and 86% and 69.8%	110% and 97.8% and 105%	83.9% and 94.1% and 98.5%	88.3% and 93.2% and 89%	86.6% and 71.6% and 81.2%	> 10 µM	–	–
C=CCn1c(=O)c2cnc(Nc3ccc(N4CCN(C)CC4)cc3)nc2n1-c1cccc(C(C)(C)O)n1	83% and 81.4%	107% and 106%	126% and 105%	104% and 95.3%	83.3% and 94.8%	92.4% and 92.1%	> 10 µM	–	–
CC(=O)O[C@H]1C(=O)[C@@]2(C)[C@H]([C@H](OC(=O)c3ccccc3)[C@]3(O)C[C@H](OC(=O)[C@H](O)[C@@H](NC(=O)c4ccccc4)c4ccccc4)C(C)=C1C3(C)C)[C@]1(OC(C)=O)CO[C@@H]1C[C@@H]2O	83.9% and 107% and 108%	113% and 101% and 80.3%	93.4% and 80.2% and 97.1%	87% and 83.3% and 85.1%	89% and 82.4% and 95.4%	101% (2×) and 86.7%	> 10 µM	–	–
CC(C)(O)C1CCC(Nc2ccc3ncc(-c4cccc(C(F)(F)F)c4)n3n2)CC1 (stereo not given)	79%	119% and 115%	104% and 106%	80.3% and 73%	34.5% and 13.3%	48.6% and 45.4%	2.46 µM and 1.84 µM	–	–
CCCS(=O)(=O)Nc1ccc(F)c(C(=O)c2c[nH]c3ncc(-c4ccc(Cl)cc4)cc23)c1F	88.3%	112%	114%	97.1%	125%	103%	> 10 µM	–	–
COc1ncnc(C2CC2)c1-c1ncc2cnn(Cc3ccc(-c4nc(C(F)(F)F)cn4C(C)C)cc3)c2n1	104% and 85.1%	111% and 83.2%	101% and 92.7%	119% and 75.2%	95.7% and 89.8%	83.2% and 81.7%	> 10 µM	–	–
Cc1[nH]c2ccc(F)cc2c1-c1nc2c3cccnc3c3ncccc3c2[nH]1	–	87.9% [middle of 9 runs]	92.2% [middle of 9 runs]	–	–	–	–	8.82 µM and > 10 µM and 9.27 µM	> 10 µM
Cc1cnc(CNC(=O)c2c(=O)c3ccc(N4CCCN(C)CC4)nc3n3c2sc2ccccc23)cn1	–	–	–	69.1% [middle of 10 runs]	–	52.6% [middle of 10 runs]	–	–	–
O=C(NO)c1cnc(N2CCN(S(=O)(=O)c3ccc4ccccc4c3)CC2)nc1	97.8% and 112%	76.5% and 58.8%	25.8% and 37.5%	9.47% and 14.6%	0.68% and 0.35%	0.51% and 0.58%	0.184 µM and 0.162 µM	–	–
